Our source for the Concentration values is ChEMBL document CHEMBL1129386, “Synthesis and immunostimulating properties of lipophilic ester and ether muramyl peptide derivatives” (J Med Chem, 1996).

This experiment relates to RAW264.7. Description: Concentration of compound which increased the nitrite production in RAW 264.7 mouse monocyte-macrophage line. The class given is functional, cell-based.

Take `CC(=O)N[C@@H]1[C@@H](OC(C)C(=O)N[C@@H](C)C(=O)N[C@H](CCC(=O)N[C@@H](C)C(=O)O[C@H]2CC[C@@]3(C)C(=CC[C@H]4[C@@H]5CC[C@H]([C@H](C)CCCC(C)C)[C@@]5(C)CC[C@@H]43)C2)C(N)=O)[C@H](O)[C@@H](CO)O[C@@H]1O` (stereo partly specified): the Concentration was determined as 1 µM.
